Test: xn = mol fraction of the nth substance listed

CCCC[n+]1ccn(C)c1.O=S(=O)([N-]S(=O)(=O)C(F)(F)F)C(F)(F)F + c1ccsc1
Details | viscosity [mPa·s]
328.15 K, 100 kPa, x2 = 0 | 17.98

CCCC[n+]1ccn(C)c1.O=S(=O)([N-]S(=O)(=O)C(F)(F)F)C(F)(F)F + CCCCCCO
Details | viscosity [mPa·s]
298 K, 100 kPa, x1 = 1 | 49.7

CCCCCC[n+]1ccn(C)c1.F[P-](F)(F)(F)(F)F + CCCCCC[n+]1ccn(C)c1.[Cl-]
101 kPa
Details | electrical conductivity [S/m] | viscosity [mPa·s]
303 K, x2 = 0.6 | 0.0103 | –
303 K, x2 = 0.8 | 0.00536 | –
303.15 K, x2 = 0.2 | – | 960
303.15 K, x2 = 0.4 | – | 1853
308 K, x2 = 0.4 | 0.0299 | –
308 K, x2 = 0.8 | 0.00862 | –
308.15 K, x2 = 0 | – | 360
313 K, x2 = 0 | 0.13 | –
313 K, x2 = 0.4 | 0.0424 | –
318 K, x2 = 0.6 | 0.0337 | –
318.15 K, x2 = 0.4 | – | 600
323.15 K, x2 = 0.6 | – | 710
328 K, x2 = 0 | 0.26 | –
328 K, x2 = 0.8 | 0.0419 | –
328.15 K, x2 = 0.2 | – | 205

CC[n+]1ccn(C)c1.O=S(=O)([O-])O + O=C1O[C@H]([C@@H](O)CO)C(O)=C1O + O
viscosity [mPa·s], 100 kPa
Details | 293.15 K | 298.15 K | 303.15 K | 308.15 K | 313.15 K | 318.15 K
x2 = 0, x1 = 0.0009002 | 1.05 | 0.94 | 0.84 | 0.76 | 0.69 | 0.65
x2 = 0, x1 = 0.001799 | 1.07 | 0.95 | 0.85 | 0.77 | 0.7 | 0.64
x2 = 0, x1 = 0.002696 | 1.08 | 0.96 | 0.86 | 0.78 | 0.71 | 0.64
x2 = 0.0002713, x1 = 0.0008999 | 1.05 | 0.95 | 0.84 | 0.76 | 0.7 | 0.65
x2 = 0.0002768, x1 = 0.001798 | 1.08 | 0.96 | 0.86 | 0.78 | 0.71 | 0.65
x2 = 0.000277, x1 = 0.002695 | 1.09 | 0.97 | 0.87 | 0.78 | 0.72 | 0.65
x2 = 0.0005469, x1 = 0.0008997 | 1.06 | 0.96 | 0.85 | 0.77 | 0.71 | 0.66
x2 = 0.0005489, x1 = 0.001798 | 1.08 | 0.96 | 0.87 | 0.78 | 0.72 | 0.66
x2 = 0.0005544, x1 = 0.002694 | 1.1 | 0.98 | 0.88 | 0.79 | 0.72 | 0.66
x2 = 0.0008183, x1 = 0.0008994 | 1.07 | 0.96 | 0.85 | 0.78 | 0.71 | 0.67
x2 = 0.0008262, x1 = 0.001797 | 1.09 | 0.97 | 0.87 | 0.79 | 0.72 | 0.66
x2 = 0.000834, x1 = 0.002693 | 1.1 | 0.98 | 0.88 | 0.8 | 0.73 | 0.67
x2 = 0.00109, x1 = 0.0008992 | 1.07 | 0.97 | 0.86 | 0.78 | 0.72 | 0.67
x2 = 0.0011, x1 = 0.001797 | 1.09 | 0.97 | 0.88 | 0.8 | 0.73 | 0.67
x2 = 0.00111, x1 = 0.002693 | 1.11 | 0.99 | 0.89 | 0.8 | 0.73 | 0.67
x2 = 0.001362, x1 = 0.000899 | 1.08 | 0.97 | 0.86 | 0.79 | 0.72 | 0.68
x2 = 0.001374, x1 = 0.001796 | 1.1 | 0.98 | 0.88 | 0.8 | 0.73 | 0.67
x2 = 0.00139, x1 = 0.002692 | 1.11 | 1 | 0.89 | 0.81 | 0.74 | 0.68
x2 = 0.001633, x1 = 0.0008987 | 1.09 | 0.98 | 0.87 | 0.79 | 0.73 | 0.68
x2 = 0.001648, x1 = 0.001796 | 1.11 | 0.98 | 0.89 | 0.81 | 0.74 | 0.68
x2 = 0.001666, x1 = 0.002691 | 1.12 | 1 | 0.9 | 0.81 | 0.75 | 0.68
x2 = 0.001906, x1 = 0.0008985 | 1.09 | 0.98 | 0.88 | 0.8 | 0.73 | 0.69
x2 = 0.001923, x1 = 0.001795 | 1.11 | 0.99 | 0.9 | 0.81 | 0.74 | 0.68
x2 = 0.001942, x1 = 0.00269 | 1.12 | 1.01 | 0.9 | 0.82 | 0.75 | 0.69

CCCC[n+]1ccn(C)c1.O=S(=O)([N-]S(=O)(=O)C(F)(F)F)C(F)(F)F + CCCCO
298 K
Details | electrical conductivity [S/m] | viscosity [mPa·s]
100 kPa, x1 = 0.05 | – | 3.52
100 kPa, x1 = 0.1 | – | 4.728
100 kPa, x1 = 0.1998 | – | 6.745
100 kPa, x1 = 0.2996 | – | 8.98
100 kPa, x1 = 0.399 | – | 11.9
100 kPa, x1 = 0.4991 | – | 15.1
100 kPa, x1 = 0.5995 | – | 19.41
100 kPa, x1 = 0.6984 | – | 24.48
100 kPa, x1 = 0.7971 | – | 31.76
100 kPa, x1 = 0.9005 | – | 39.89
100 kPa, x1 = 1 | – | 49.7
101 kPa, x2 = 0 | – | 50.4
101 kPa, x2 = 0.2936 | 0.561 | –
101 kPa, x2 = 0.317 | 0.613 | –
101 kPa, x2 = 0.5053 | 0.668 | –
101 kPa, x2 = 0.6833 | 0.653 | –
101 kPa, x2 = 0.8349 | 0.418 | –
101 kPa, x2 = 0.8623 | 0.368 | –
